Series [1] addresses T1, ALK (Homo sapiens, UniProt Q9UM73).
T1 construct: made in house; host or cells: Sf9 insect cells (baculovirus)
Kind of series: 33PanQinase Activity Assay, ALK. Conditions: recombinant human protein kinase, 1 μM [γ-33P]-ATP, 30° C. 80 minutes. It is filed as biochemical. The protocol:
(§1) The effect of the thioether derivatives 8a-v and 9a-i was tested on recombinant, human protein kinases. All protein kinases were expressed in Sf9 insect cells as human recombinant GST-fusion proteins or as His-tagged proteins by means of the baculovirus expression system. Protein kinases were purified by affinity chromatography using either GSH-agarose or Ni-NTH-agarose. The purity and identity of each was checked by SDS-PAGE/silver staining and by western blot analysis with specific antibodies.
(§2) A proprietary protein kinase assay (^33PanQinase® Activity Assay) was used for measuring the kinase activity. All kinase assays were performed in 96-well FlashPlates™ in a 50 μl reaction volume. The assay for all enzymes contained 60 mM HEPES-NaOH, pH 7.5, 3 mM MgCl2, 3 mM MnCl2, 3 μM Na-orthovanadate, 1.2 mM DTT, 50 μg/ml PEG20000 and 1 μM [γ-^33P]-ATP (approx. 5×10^5 cpm per well).
(§3) The reaction cocktails were incubated at 30° C. for 80 minutes. The reaction was stopped with 50 μl of 2% (v/v) H3PO4, plates were aspirated and washed two times with 200 μl of 0.9% (w/v) NaCl. Incorporation of ^33Pi was determined with a microplate scintillation counter. All assays were performed with a BeckmanCoulter/Sagian robotic system.

The target in series [2] is T2, AXL (Homo sapiens, UniProt P30530).
T2 construct: made in house; host or cells: Sf9 insect cells (baculovirus)
T2 sequence (P30530 26-894): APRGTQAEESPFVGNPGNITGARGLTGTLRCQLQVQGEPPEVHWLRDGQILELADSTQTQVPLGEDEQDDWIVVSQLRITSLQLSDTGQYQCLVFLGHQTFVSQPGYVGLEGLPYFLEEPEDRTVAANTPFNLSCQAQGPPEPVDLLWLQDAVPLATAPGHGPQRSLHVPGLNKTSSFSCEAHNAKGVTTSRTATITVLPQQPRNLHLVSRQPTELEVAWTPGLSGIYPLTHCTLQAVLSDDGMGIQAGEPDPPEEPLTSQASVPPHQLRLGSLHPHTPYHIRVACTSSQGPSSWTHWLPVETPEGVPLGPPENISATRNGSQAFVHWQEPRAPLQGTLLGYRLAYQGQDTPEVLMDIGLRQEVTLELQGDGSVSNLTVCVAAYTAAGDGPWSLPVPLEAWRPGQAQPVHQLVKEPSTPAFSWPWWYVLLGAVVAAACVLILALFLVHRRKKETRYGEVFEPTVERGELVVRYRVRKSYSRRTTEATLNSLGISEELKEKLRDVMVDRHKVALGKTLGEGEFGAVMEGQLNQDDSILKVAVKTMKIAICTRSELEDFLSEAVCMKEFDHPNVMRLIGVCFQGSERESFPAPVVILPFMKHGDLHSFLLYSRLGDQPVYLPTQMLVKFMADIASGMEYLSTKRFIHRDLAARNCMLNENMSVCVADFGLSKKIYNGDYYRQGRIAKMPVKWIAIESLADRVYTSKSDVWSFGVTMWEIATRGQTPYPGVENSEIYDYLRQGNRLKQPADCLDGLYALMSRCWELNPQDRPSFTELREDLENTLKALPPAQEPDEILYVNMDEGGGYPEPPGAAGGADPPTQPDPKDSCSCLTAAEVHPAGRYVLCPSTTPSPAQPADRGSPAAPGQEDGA
As to the kind of experiment: 33PanQinase Activity Assay, AXL. In kind it is biochemical. Conditions: recombinant human protein kinase, 1 μM [γ-33P]-ATP, 30° C. 80 minutes. Here is the method:
as §1, §2, §3

Series [3] concerns the target T3, FAK (Homo sapiens, UniProt Q05397).
T3 construct: made in house; host or cells: Sf9 insect cells (baculovirus)
Kind of series: 33PanQinase Activity Assay, FAK. It is filed as biochemical. Particulars: recombinant human protein kinase, 1 μM [γ-33P]-ATP, 30° C. 80 minutes. Here is the method:
as §1, §2, §3

Series [4] deals with T4, IGF1-R (Homo sapiens, UniProt P08069).
T4 construct: made in house; host or cells: Sf9 insect cells (baculovirus)
As to the kind of experiment: 33PanQinase Activity Assay, IGF1-R. Conditions: recombinant human protein kinase, 1 μM [γ-33P]-ATP, 30° C. 80 minutes. In kind it is biochemical. Here is the method:
as §1, §2, §3

Series [5] deals with T5, PIM1 (Homo sapiens, UniProt P11309).
T5 construct: made in house; host or cells: Sf9 insect cells (baculovirus)
As to the kind of experiment: 33PanQinase Activity Assay, PIM1. It is filed as biochemical. Particulars: recombinant human protein kinase, 1 μM [γ-33P]-ATP, 30° C. 80 minutes. Here is the method:
as §1, §2, §3

Series [6] has as its target T6, PRK1 (Homo sapiens, UniProt Q16512).
T6 construct: made in house; host or cells: Sf9 insect cells (baculovirus)
As to the kind of experiment: 33PanQinase Activity Assay, PRK1. Particulars: recombinant human protein kinase, 1 μM [γ-33P]-ATP, 30° C. 80 minutes. It is filed as biochemical. The protocol: as §1, §2, §3

Series [7] concerns the target T7, SRC (Homo sapiens, UniProt P12931).
T7 construct: made in house; host or cells: Sf9 insect cells (baculovirus)
Kind of series: 33PanQinase Activity Assay, SRC. It is filed as biochemical. Conditions: recombinant human protein kinase, 1 μM [γ-33P]-ATP, 30° C. 80 minutes. The protocol: as §1, §2, §3

In series [8] the target is T8, VEGF-R2 (Homo sapiens, UniProt P35968).
T8 construct: made in house; host or cells: Sf9 insect cells (baculovirus)
As to the kind of experiment: 33PanQinase Activity Assay, VEGF-R2. Particulars: recombinant human protein kinase, 1 μM [γ-33P]-ATP, 30° C. 80 minutes. In kind it is biochemical. The protocol: as §1, §2, §3

Series [9] has as its target T9, ALK, AXL, FAK, KIT wt, IGF1-R, PIM1, PRK1, SRC and VEGF-R2.
T9 construct: other: at le; fused on or other part: GST or His tag
Kind of series: 33PanQinase Activity Assay, kinase panel summary. In kind it is biochemical, human. Particulars: at least two kinases of the panel; read-out: IC50 values on at least two kinases from at least two different molecular mechanisms of tumor progression. The protocol: as §1, §2, §3
Thioether derivatives 8a-v and 9a-i show excellent IC50 values.

T3 sequence (Q05397 whole entry): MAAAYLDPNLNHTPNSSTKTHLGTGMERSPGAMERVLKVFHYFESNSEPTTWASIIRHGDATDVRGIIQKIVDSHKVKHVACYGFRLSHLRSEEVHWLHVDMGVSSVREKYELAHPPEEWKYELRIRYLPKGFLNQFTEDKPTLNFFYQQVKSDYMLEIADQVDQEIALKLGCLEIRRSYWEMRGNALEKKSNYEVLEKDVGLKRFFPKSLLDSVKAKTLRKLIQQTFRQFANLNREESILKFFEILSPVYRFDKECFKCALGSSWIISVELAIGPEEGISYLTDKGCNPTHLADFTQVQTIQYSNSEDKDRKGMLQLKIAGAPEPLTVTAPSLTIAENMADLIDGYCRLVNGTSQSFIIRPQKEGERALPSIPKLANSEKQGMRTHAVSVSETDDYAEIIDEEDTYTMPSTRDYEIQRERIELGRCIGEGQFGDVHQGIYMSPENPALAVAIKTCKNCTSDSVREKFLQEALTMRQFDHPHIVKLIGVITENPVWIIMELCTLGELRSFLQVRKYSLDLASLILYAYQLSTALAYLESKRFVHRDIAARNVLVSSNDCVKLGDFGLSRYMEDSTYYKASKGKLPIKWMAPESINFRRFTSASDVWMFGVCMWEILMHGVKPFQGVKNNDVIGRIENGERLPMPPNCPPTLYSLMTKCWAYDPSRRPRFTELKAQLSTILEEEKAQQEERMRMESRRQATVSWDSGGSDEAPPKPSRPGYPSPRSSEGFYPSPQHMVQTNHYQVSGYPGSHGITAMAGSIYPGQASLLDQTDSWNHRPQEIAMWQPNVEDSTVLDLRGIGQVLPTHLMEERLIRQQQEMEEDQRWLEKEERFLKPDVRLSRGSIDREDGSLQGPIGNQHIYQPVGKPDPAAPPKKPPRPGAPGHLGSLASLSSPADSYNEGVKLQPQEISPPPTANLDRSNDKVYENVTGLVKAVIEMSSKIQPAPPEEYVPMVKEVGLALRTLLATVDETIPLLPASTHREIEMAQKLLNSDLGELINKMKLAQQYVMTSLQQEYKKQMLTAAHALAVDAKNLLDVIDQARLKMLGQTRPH
T8 sequence (P35968 20-1356): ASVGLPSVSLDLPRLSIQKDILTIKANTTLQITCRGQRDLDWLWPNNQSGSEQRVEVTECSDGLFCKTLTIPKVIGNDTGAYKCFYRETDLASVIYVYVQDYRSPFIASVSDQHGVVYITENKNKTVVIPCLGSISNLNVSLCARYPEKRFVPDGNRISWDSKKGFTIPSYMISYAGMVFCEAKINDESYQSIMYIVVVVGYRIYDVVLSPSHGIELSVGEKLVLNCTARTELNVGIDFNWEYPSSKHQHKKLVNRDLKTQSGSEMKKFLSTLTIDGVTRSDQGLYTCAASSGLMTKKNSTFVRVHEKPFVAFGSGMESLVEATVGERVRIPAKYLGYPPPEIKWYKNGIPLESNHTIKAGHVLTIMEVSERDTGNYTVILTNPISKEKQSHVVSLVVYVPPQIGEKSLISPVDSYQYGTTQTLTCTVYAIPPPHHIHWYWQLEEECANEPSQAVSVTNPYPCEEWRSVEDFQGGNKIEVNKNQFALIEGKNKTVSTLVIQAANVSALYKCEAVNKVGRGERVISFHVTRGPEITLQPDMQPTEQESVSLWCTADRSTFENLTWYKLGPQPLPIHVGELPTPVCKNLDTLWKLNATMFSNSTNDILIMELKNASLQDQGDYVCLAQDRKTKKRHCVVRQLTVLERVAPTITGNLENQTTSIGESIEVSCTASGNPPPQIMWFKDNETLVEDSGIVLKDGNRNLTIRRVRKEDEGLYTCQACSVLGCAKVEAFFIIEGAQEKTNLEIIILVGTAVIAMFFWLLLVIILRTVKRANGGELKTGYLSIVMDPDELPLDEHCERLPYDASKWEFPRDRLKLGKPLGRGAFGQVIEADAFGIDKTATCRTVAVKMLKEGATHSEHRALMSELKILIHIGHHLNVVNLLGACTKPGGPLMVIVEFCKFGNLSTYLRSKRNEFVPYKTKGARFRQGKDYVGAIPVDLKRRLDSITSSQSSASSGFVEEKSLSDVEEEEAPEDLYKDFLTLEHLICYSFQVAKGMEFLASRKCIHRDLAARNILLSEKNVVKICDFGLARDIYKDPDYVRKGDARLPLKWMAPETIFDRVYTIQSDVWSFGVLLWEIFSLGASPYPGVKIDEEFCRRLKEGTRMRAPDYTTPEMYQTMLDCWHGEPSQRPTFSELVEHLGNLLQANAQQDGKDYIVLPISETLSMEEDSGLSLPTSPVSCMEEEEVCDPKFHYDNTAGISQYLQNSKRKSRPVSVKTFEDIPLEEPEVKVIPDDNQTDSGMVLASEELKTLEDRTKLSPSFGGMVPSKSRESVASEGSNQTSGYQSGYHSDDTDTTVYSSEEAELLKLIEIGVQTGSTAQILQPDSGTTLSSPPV
T1 sequence (Q9UM73 19-1620): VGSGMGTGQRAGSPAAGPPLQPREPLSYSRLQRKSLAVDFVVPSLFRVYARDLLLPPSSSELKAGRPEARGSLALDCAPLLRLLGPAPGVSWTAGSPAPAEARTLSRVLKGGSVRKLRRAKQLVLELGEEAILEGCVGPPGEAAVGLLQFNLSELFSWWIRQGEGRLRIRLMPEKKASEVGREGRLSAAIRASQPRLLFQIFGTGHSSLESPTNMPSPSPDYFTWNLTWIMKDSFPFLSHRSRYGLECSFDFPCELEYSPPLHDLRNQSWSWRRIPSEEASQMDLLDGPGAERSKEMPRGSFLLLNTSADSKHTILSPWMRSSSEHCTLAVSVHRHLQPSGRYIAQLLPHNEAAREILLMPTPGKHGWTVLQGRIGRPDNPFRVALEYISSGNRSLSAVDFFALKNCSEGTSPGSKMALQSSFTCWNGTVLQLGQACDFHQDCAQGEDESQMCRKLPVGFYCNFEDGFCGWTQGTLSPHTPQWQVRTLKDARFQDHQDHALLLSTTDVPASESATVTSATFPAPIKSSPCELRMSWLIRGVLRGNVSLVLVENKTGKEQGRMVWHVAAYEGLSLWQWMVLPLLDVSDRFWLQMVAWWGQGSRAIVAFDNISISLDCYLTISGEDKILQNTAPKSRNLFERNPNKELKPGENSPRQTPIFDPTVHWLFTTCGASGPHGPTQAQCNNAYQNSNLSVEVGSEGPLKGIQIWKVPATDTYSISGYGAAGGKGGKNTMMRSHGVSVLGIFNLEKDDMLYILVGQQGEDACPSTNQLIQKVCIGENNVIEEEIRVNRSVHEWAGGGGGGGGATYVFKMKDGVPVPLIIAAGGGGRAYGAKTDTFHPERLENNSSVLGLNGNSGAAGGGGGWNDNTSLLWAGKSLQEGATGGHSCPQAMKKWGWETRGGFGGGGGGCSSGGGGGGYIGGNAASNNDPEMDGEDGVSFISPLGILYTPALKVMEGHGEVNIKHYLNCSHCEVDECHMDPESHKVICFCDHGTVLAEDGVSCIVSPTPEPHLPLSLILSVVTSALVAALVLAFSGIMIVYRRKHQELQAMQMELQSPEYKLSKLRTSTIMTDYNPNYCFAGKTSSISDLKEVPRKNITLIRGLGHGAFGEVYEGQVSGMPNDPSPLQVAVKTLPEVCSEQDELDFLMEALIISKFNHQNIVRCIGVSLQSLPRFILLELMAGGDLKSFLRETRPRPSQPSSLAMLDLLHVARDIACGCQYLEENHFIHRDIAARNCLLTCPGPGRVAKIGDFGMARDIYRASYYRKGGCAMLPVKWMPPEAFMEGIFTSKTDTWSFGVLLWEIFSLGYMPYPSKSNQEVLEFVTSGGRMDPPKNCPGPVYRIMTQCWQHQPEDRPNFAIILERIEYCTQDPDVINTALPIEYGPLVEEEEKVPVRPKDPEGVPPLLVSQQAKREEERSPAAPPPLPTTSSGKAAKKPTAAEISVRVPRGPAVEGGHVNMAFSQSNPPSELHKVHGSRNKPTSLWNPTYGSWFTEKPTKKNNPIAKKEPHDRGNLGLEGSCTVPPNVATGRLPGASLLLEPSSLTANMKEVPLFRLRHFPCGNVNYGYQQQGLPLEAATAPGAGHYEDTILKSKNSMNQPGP
T7 sequence (P12931 whole entry): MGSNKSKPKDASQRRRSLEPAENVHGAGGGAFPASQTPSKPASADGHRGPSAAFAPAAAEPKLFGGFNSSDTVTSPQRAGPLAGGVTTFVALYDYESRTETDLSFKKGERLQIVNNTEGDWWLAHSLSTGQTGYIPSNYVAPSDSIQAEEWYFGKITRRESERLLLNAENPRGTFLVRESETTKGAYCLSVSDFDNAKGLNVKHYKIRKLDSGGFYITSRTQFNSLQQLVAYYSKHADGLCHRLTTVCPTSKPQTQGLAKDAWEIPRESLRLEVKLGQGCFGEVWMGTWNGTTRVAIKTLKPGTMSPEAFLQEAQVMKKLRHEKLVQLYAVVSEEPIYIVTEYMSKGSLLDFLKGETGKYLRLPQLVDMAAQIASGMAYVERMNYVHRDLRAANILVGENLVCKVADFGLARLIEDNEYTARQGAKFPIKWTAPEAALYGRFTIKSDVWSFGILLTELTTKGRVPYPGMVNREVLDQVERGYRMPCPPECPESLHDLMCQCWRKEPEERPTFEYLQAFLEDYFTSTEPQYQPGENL
T5 sequence (P11309 whole entry): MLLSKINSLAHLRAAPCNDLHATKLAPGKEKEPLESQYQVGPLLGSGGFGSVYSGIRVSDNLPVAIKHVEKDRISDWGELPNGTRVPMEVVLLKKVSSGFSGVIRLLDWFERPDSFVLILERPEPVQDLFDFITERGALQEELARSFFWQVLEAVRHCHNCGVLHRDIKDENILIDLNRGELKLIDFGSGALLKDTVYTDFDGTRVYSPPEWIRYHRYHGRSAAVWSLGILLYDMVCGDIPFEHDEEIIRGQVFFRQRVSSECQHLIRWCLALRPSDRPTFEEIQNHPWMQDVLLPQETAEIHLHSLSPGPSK

As for `Fc1ccc(-c2cc3ncnc(Sc4nnc(Cc5ccccc5)o4)c3s2)cc1` [Compound 8l, 2-Benzyl-5-{[6-(4-fluorophenyl)thieno[3,2-d]pyrimidin-4-yl]thio}-1,3,4-oxadiazole], the IC50 in series [1] came to 1150 nM; in series [2], 3.14 µM; in series [3], 3.01 µM; in series [4] it was 1500 nM; in [5], 13.7 µM; in series [6] it was 38 µM. Further, the concentration for half-maximal inhibition (IC50) amounted to 875 nM in series [7] and 2240 nM in series [8].

For the molecule `FC(F)(F)c1ccc(-c2nnc(Sc3ncnc4[nH]c(-c5ccccc5)nc34)o2)cc1` [Compound 8v, 2-[(8-Phenyl-9H-purin-6-yl)thio]-5-[4-(trifluoromethyl)phenyl]-1,3,4-oxadiazole], the melting point was in the range of 256 to 257 °C. Moreover, the IC50 in [1] came out at 860 nM. Moreover, in [2], the 50% inhibitory concentration (IC50) was > 100 µM. For the same molecule, the IC50 in [3] came to 0.93 µM. Further, in [7], the half-inhibitory concentration (IC50) is 700 nM. For the same molecule, the IC50 in [9] was < 10 µM.

`Fc1ccc(-c2cc3ncnc(Sc4ccc(C(F)(F)F)cc4)c3s2)cc1` [Compound 8h, 6-(4-Fluorophenyl)-4-{[4-(trifluoromethyl)phenyl]thio}thieno[3,2-d]pyrimidine] had a melting point of 172 to 175 °C. In addition, the 50% inhibitory concentration (IC50) in [1] stood at 1030 nM. The IC50 in series [2] stood at 2.94 µM. In addition, the concentration for half-maximal inhibition (IC50) in series [3] was determined as 2.04 µM. Moreover, the IC50 in series [4] turned out to be 1370 nM. Moreover, in series [5], the IC50 stood at 11.3 µM. In addition, the IC50 in series [6] came to 33.9 µM. Further, the IC50 in series [7] worked out at 681 nM. Moreover, in series [8], the half-inhibitory concentration (IC50) was 1840 nM.

In turn, `COc1cccc(Cc2nnc(Sc3ncnc4cc(-c5ccc(F)cc5)sc34)o2)c1` [Compound 8f, 2-{[6-(4-Fluorophenyl)thieno[3,2-d]pyrimidin-4-yl]thio}-5-(3-methoxybenzyl)-1,3,4-oxadiazole] gave a melting point of 166 to 168 °C. Also, the IC50 in [1] was found to be 651 nM. The IC50 in series [2] was determined as 3.2 µM. In addition, in [3], the IC50 amounted to 1.28 µM. In addition, the IC50 in series [4] is 1270 nM. Moreover, the IC50 in series [5] is 10.4 µM. In addition, in series [6], the half-inhibitory concentration (IC50) came to 14.6 µM. Also, the half-inhibitory concentration (IC50) in series [7] is 487 nM. In addition, the concentration for half-maximal inhibition (IC50) in series [8] was 1470 nM.

`CC(C)(C)c1nnc(Sc2ncnc3cc(-c4ccc(F)cc4)sc23)o1` [Compound 8g, 2-(tert-Butyl)-5-{[6-(4-fluorophenyl)thieno[3,2-d]pyrimidin-4-yl]thio}-1,3,4-oxadiazole] came in with a melting point of 197 to 199 °C. For the same molecule, the IC50 in series [1] worked out at 2370 nM. In addition, the IC50 in series [2] amounted to 6.19 µM. In series [3], the 50% inhibitory concentration (IC50) was 4.82 µM. For the same molecule, the IC50 in series [4] amounted to 3280 nM. For the same molecule, the IC50 in series [5] was 22.9 µM. Also, the IC50 in series [7] stood at 2510 nM. In addition, the 50% inhibitory concentration (IC50) in series [8] was 4070 nM.

In turn, `Fc1ccc(-c2cc3ncnc(Sc4ccccn4)c3s2)cc1` [Compound 8j, 6-(4-Fluorophenyl)-4-(pyridin-2-ylthio)thieno[3,2-d]pyrimidine] registered a melting point of 172 to 174 °C. The 50% inhibitory concentration (IC50) in series [1] amounted to 6630 nM. Also, the half-inhibitory concentration (IC50) in series [2] stood at 22.6 µM. In [3], the concentration for half-maximal inhibition (IC50) was 9.08 µM. The IC50 in [4] is 9150 nM. The IC50 in series [6] was found to be 47.3 µM. Besides, the half-inhibitory concentration (IC50) in series [7] stood at 6350 nM. Besides, the IC50 in [8] was determined as 9690 nM.

With `Fc1ccc(-c2cc3ncnc(Sc4ncc[nH]4)c3s2)cc1` [Compound 8i, 4-[(1H-imidazol-2-yl)thio]-6-(4-fluorophenyl)thieno[3,2-d]pyrimidine], the melting point lay within 204 to 206 °C. For the same molecule, in series [1], the concentration for half-maximal inhibition (IC50) turned out to be 23700 nM. In addition, the half-maximal inhibitory concentration (IC50) in series [2] came to 41.5 µM. In addition, the 50% inhibitory concentration (IC50) in series [3] was determined as 22.1 µM. Further, the IC50 in [4] was determined as 23100 nM. Also, the IC50 in series [5] came out at 11.1 µM. Further, the IC50 in series [6] was found to be 86.1 µM. Also, the IC50 in series [7] came to 11000 nM. The IC50 in [8] came to 20800 nM.

Turning to `O=S1(=O)CCC(Cc2nnc(Sc3ncnc4cc(-c5ccc(F)cc5)sc34)o2)C1` (centres unmarked) [Compound 8k, 3-{[5-({6-[4-Fluorophenyl]thieno[3,2-d]pyrimidin-4-yl}thio)-1,3,4-oxadiazol-2-yl]methyl}-tetrahydrothiophene-1,1-dioxide], the melting point fell in the range of 180 to 182 °C. For the same molecule, in series [1], the half-maximal inhibitory concentration (IC50) came to 2950 nM. Also, the IC50 in [2] amounted to 4.58 µM. The IC50 in series [3] turned out to be 5.76 µM. In [4], the IC50 was 7650 nM. Moreover, in [5], the 50% inhibitory concentration (IC50) worked out at 26.3 µM. In series [7], the IC50 was 2620 nM. The IC50 in series [8] is 2050 nM.

Regarding `Fc1ccc(-c2cc3ncnc(Sc4nnc(-c5ccc(C(F)(F)F)cc5)o4)c3s2)cc1` [Compound 8e, 2-{[6-(4-Fluorophenyl)thieno[3,2-d]pyrimidin-4-yl]thio}-5-[4-(trifluoromethyl)-phenyl]-1,3,4-oxadiazole], the melting point lay within 233 to 235 °C. In addition, the concentration for half-maximal inhibition (IC50) in series [1] came to 977 nM. Also, the half-maximal inhibitory concentration (IC50) in series [2] was found to be 2.51 µM. For the same molecule, in series [3], the half-maximal inhibitory concentration (IC50) stood at 1.96 µM. Further, in series [4], the IC50 stood at 1030 nM. Besides, in series [5], the IC50 was 8.68 µM. Besides, in series [6], the IC50 amounted to 15.4 µM. Besides, the IC50 in series [7] is 540 nM. Also, the IC50 in series [8] was 1410 nM.

Source of the values: patent US9925193B2, “Thioether derivatives as protein kinase inhibitors” (KTB TUMORFORSCHUNGSGESELLSCHAFT MBH, priority 2012, dated 2018).
